Data as given in the NIST ThermoML archive (doi:10.1021/je034102r).
Numbers after ± are expanded uncertainties.

Assay: molar heat capacity at constant pressure
Settings: 101.33 kPa, Liquid, heat bridge-scanning calorimeter

Measured: molar heat capacity at constant pressure

CCCCn1cc[n+](C)c1.F[P-](F)(F)(F)(F)F [1-butyl-3-methylimidazolium hexafluorophosphate]
468.05 ± 9.4 J/K/mol: 395.99 K
464.35 ± 9.4 J/K/mol: 391.27 K | 391.53 K | 392.3 K | 393.36 K | 393.49 K
461.23 ± 9.1 J/K/mol: 388.28 K | 388.54 K
471.17 ± 9.4 J/K/mol: 399.41 K | 399.82 K | 400.34 K
457.53 ± 9.1 J/K/mol: 380.84 K | 381.25 K | 382.01 K | 382.27 K | 382.56 K | 383.83 K
468.33 ± 9.4 J/K/mol: 396.12 K | 396.24 K | 396.37 K
472.03 ± 9.4 J/K/mol: 399.53 K | 400.86 K | 401.8 K | 401.93 K | 402.19 K | 403.13 K | 403.26 K | 403.39 K | 403.52 K | 403.65 K | 405.38 K
465.49 ± 9.4 J/K/mol: 394.3 K | 394.42 K
461.8 ± 9.4 J/K/mol: 389.18 K | 389.3 K | 389.56 K | 389.84 K
471.46 ± 9.4 J/K/mol: 402.32 K | 402.45 K | 402.87 K
467.48 ± 9.4 J/K/mol: 394.81 K | 394.94 K
472.31 ± 9.4 J/K/mol: 401.54 K | 402.06 K | 403.78 K | 403.91 K | 404.32 K | 404.45 K | 404.58 K
464.07 ± 9.4 J/K/mol: 390.73 K | 391.79 K | 391.92 K | 392.71 K | 392.84 K | 392.97 K | 393.11 K | 393.24 K
472.88 ± 9.4 J/K/mol: 405.24 K | 405.67 K | 406.46 K | 406.59 K | 408.05 K
456.68 ± 9.1 J/K/mol: 381.51 K | 381.63 K | 381.76 K
458.95 ± 9.1 J/K/mol: 384.74 K
467.2 ± 9.4 J/K/mol: 395.07 K | 395.86 K
463.5 ± 9.4 J/K/mol: 390.86 K | 391.15 K
458.1 ± 9.1 J/K/mol: 382.94 K | 384.1 K | 384.36 K | 385.12 K
474.02 ± 9.4 J/K/mol: 405.93 K | 406.06 K | 407.27 K
465.77 ± 9.4 J/K/mol: 394.55 K
473.16 ± 9.4 J/K/mol: 404.71 K | 405.11 K | 406.72 K | 407.79 K | 407.92 K
465.21 ± 9.4 J/K/mol: 393.75 K | 394.04 K | 394.17 K
462.36 ± 9.4 J/K/mol: 390.22 K
470.89 ± 9.4 J/K/mol: 399.28 K | 399.95 K | 400.08 K
460.38 ± 9.1 J/K/mol: 386.69 K | 386.97 K | 387.61 K | 387.74 K
462.08 ± 9.4 J/K/mol: 389.96 K | 390.09 K
470.04 ± 9.4 J/K/mol: 398.75 K
456.97 ± 9.1 J/K/mol: 380.71 K | 381.38 K | 381.89 K
457.82 ± 9.1 J/K/mol: 382.14 K | 382.81 K | 383.57 K | 383.7 K | 384.23 K | 384.99 K
457.25 ± 9.1 J/K/mol: 380.98 K
466.34 ± 9.4 J/K/mol: 394.68 K
464.64 ± 9.4 J/K/mol: 391.4 K | 391.66 K | 393.62 K
469.47 ± 9.4 J/K/mol: 396.63 K | 397.69 K | 398.08 K | 398.21 K | 398.62 K
459.52 ± 9.1 J/K/mol: 385.41 K | 385.79 K | 386.05 K
458.39 ± 9.1 J/K/mol: 382.68 K | 383.06 K | 383.45 K | 384.86 K
464.92 ± 9.4 J/K/mol: 392.43 K
473.45 ± 9.4 J/K/mol: 406.33 K | 406.85 K | 407.53 K | 407.66 K | 408.19 K
470.32 ± 9.4 J/K/mol: 398.88 K
460.94 ± 9.1 J/K/mol: 388.41 K
470.61 ± 9.4 J/K/mol: 399.01 K | 399.15 K | 400.21 K
473.73 ± 9.4 J/K/mol: 404.84 K | 404.98 K | 405.8 K | 406.2 K | 406.98 K | 407.4 K
463.79 ± 9.4 J/K/mol: 390.6 K | 392.05 K | 392.17 K
466.63 ± 9.4 J/K/mol: 395.2 K | 395.32 K
459.24 ± 9.1 J/K/mol: 384.61 K | 385.92 K
461.51 ± 9.1 J/K/mol: 388.67 K | 388.79 K | 388.92 K | 389.05 K | 389.43 K
459.81 ± 9.1 J/K/mol: 385.66 K | 386.43 K | 387.36 K
472.6 ± 9.4 J/K/mol: 400.73 K | 401.41 K | 404.04 K
466.91 ± 9.4 J/K/mol: 395.6 K | 395.73 K
468.62 ± 9.4 J/K/mol: 396.5 K | 397.05 K
469.19 ± 9.4 J/K/mol: 396.92 K | 397.44 K | 397.56 K | 397.82 K | 397.95 K | 398.49 K
471.74 ± 9.4 J/K/mol: 400.47 K | 400.6 K | 400.99 K | 401.12 K | 401.67 K | 402.74 K | 403 K
460.09 ± 9.1 J/K/mol: 385.54 K | 386.18 K | 386.3 K | 386.56 K | 387.1 K | 387.23 K | 387.49 K | 387.87 K | 388 K
458.67 ± 9.1 J/K/mol: 383.19 K | 383.32 K | 384.48 K
462.93 ± 9.4 J/K/mol: 390.35 K | 390.47 K
468.9 ± 9.4 J/K/mol: 397.18 K | 397.31 K
